Source: patent US20110217715A1, “GENE EXPRESSION IN DUCHENNE MUSCULAR DYSTROPHY” (CHILDREN'S HOSPITAL MEDICAL CENTER, priority 2008, published 2011)

Columns and labels:
individuals with DMD = settings: individuals with DMD; cited from earlier work
[1] = system: mRNA expression in peripheral blood of individuals with DMD; test: Whole-blood gene expression microarray: DMD administered prednisone or deflazacort vs DMD not administered steroid; type: in vivo, human
Protocol: Fifteen ml of blood was collected from each individual into 6 PAXgene® Vacutainer® tubes (PreAnalytiX, Germany) by antecubital fossa venipuncture. PAXgene® tubes contain a proprietary reagent that immediately stabilizes RNA, thus reducing RNA degradation and minimizing gene expression changes following phlebotomy. The tubes were then inverted 20 times, then remained undisturbed for 2 h at room temperature (about 19° C. to about 22° C.), and then stored at -70° C. until processed. Total RNA was isolated using the Paxgene® blood RNA kit (PreAnalytiX, Germany) according to the manufacturers instructions. The RNA isolated is from all cells in whole blood. […] Sample labeling, hybridization to chips, and image scanning were performed using standard Affymetrix protocols. For each whole blood sample from control individuals and individuals with DMD, total RNA was labeled using the One-Cycle Target Labeling protocol and hybridized to the arrays. […] Double-stranded cDNA synthesis, biotin-labeled cRNA synthesis, and cRNA fragmentation were performed according to the Affymetrix GeneChip Eukaryotic Expression Analysis protocol. […] After hybridization, the array was washed and stained. […] After scanning the array, the raw probe level values for each probe were saved in Affymetrix.cel files. […] Statistical analyses, including t-test analyses, unsupervised hierarchical clustering, and principal component analyses were conducted using Genespring 7.2 software ([…]® 7, Silicon Genetics, Redwood City Calif.). […] Corrections for multiple comparisons used a Benjamini-Hochberg False Discovery Rate (FDR) of 0.05, disclosed in Tang et al., J Cereb Blood Flow Metab 26 (2006) 1089, which is expressly incorporated by reference herein in its entirety. […] Individuals with DMD were evaluated and had been diagnosed by a single board-certified pediatric neurologist. The diagnosis of DMD was based in part upon clinical history, examination findings, and selected muscle biopsies and was confirmed by molecular diagnostic testing. […] Sample processing and array hybridization, probe-level data analysis, and statistical analysis were identical to Example 1.

mdx mouse = settings: cited from earlier work
[2] = system: mRNA expression in peripheral blood of individuals with DMD; test: Whole-blood gene expression microarray: DMD administered deflazacort vs DMD administered prednisone; type: in vivo, human; settings: blood
Protocol: Fifteen ml of blood was collected from each individual into 6 PAXgene® Vacutainer® tubes (PreAnalytiX, Germany) by antecubital fossa venipuncture. PAXgene® tubes contain a proprietary reagent that immediately stabilizes RNA, thus reducing RNA degradation and minimizing gene expression changes following phlebotomy. The tubes were then inverted 20 times, then remained undisturbed for 2 h at room temperature (about 19° C. to about 22° C.), and then stored at -70° C. until processed. Total RNA was isolated using the Paxgene® blood RNA kit (PreAnalytiX, Germany) according to the manufacturers instructions. The RNA isolated is from all cells in whole blood. Typical yields of total RNA isolated from about 7.5 ml of human whole blood were between 10 μg RNA and 40 μg RNA. RNA quality and purity was analyzed by spectrophotometry using the Nanodrop ND-1000, and RNA integrity was analyzed using the Agilent 2100 Bioanalyzer. […] Sample labeling, hybridization to chips, and image scanning were performed using standard Affymetrix protocols. For each whole blood sample from control individuals and individuals with DMD, total RNA was labeled using the One-Cycle Target Labeling protocol and hybridized to the arrays. […] Double-stranded cDNA synthesis, biotin-labeled cRNA synthesis, and cRNA fragmentation were performed according to the Affymetrix GeneChip Eukaryotic Expression Analysis protocol. The labeled, fragmented cRNA (15 μg) was hybridized at 45° C. overnight. After hybridization, the array was washed and stained. The arrays were scanned with an argon-ion laser at λ=570 nm, with a resolution of 3 μm/pixel (Affymetrix, Inc.). After scanning the array, the raw probe level values for each probe were saved in Affymetrix.cel files. […] Statistical analyses, including t-test analyses, unsupervised hierarchical clustering, and principal component analyses were conducted using Genespring 7.2 software ([…]® 7, Silicon Genetics, Redwood City Calif.). […] Corrections for multiple comparisons used a Benjamini-Hochberg False Discovery Rate (FDR) of 0.05, disclosed in Tang et al., J Cereb Blood Flow Metab 26 (2006) 1089, which is expressly incorporated by reference herein in its entirety. […] Sample processing and array hybridization, probe-level data analysis, and statistical analysis were identical to Example 1.

[3] = DMD administered deflazacort or prednisone vs not administered

Row | Compound | muscle function and strength (individuals with DMD) | expression levels of FKBP5 [1, 3] | expression levels of genes in the chondroitin sulfate biosynthesis pathway [1, 3] | expression levels of haptoglobin and CD163 nucleic acids [1, 3] | expression levels of lactotransferrin and lipocalin [1, 3] | expression of KFL10 ([1]; individuals administered prednisone, deflazacort, or both vs DMD not administered any agent) | expression of KFL10 (mdx mouse; six weeks of prednisone administration in the mdx mouse) | expression of interleukin 1 beta, interleukin 1 receptor antagonist, and interleukin 6 receptor ([2]; individuals with DMD administered prednisone) | expression of genes related to lipid metabolism ([2]; prednisone compared to deflazacort) | function and histology (mdx mouse; mdx mouse)
1 | Cn1cnc([N+](=O)[O-])c1Sc1ncnc2nc[nH]c12 [azathioprine] | no improvement |  |  |  |  |  |  |  |  | 
2 | C[C@]12C=CC(=O)C=C1CC[C@@H]1[C@@H]2C(=O)C[C@@]2(C)[C@H]1CC[C@]2(O)C(=O)CO [prednisone] | improved muscle function and strength | up-regulated | up-regulated | up-regulated | increased expression levels | up-regulated | up-regulated | up-regulated | up-regulated | 
3 | cyclosporin A |  |  |  |  |  |  |  |  |  | improves function and histology
